Reference: ChEMBL document CHEMBL1122523, “2-[[[2-(2,6-Dimethoxyphenoxy)ethyl]amino]-methyl] -1,4-benzoxathian: a new antagonist with high potency and selectivity toward alpha 1-adrenoreceptors” (J Med Chem, 1984)

How the values were obtained:
[1] = biological target: T1, Adrenergic receptor alpha-2 (Rattus norvegicus, UniProt P22086+P19328+P22909); assay: Alpha-2 adrenergic receptor antagonist activity against agonist (clonidine) in isolated rat vas deferens; type: functional, tissue-based
T1 sequence (P22086 whole entry): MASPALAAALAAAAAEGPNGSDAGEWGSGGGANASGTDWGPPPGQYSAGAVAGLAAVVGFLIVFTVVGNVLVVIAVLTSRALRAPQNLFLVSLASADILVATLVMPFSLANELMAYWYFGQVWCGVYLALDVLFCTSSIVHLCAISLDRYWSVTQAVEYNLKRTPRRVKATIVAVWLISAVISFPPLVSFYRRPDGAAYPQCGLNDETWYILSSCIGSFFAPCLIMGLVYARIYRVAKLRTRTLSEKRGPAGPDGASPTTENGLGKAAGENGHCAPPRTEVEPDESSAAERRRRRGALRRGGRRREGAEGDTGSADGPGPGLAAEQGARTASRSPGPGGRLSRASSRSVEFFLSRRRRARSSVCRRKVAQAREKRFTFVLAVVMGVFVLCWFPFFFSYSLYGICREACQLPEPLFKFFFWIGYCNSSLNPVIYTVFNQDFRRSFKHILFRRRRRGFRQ
T1 sequence (P19328 whole entry): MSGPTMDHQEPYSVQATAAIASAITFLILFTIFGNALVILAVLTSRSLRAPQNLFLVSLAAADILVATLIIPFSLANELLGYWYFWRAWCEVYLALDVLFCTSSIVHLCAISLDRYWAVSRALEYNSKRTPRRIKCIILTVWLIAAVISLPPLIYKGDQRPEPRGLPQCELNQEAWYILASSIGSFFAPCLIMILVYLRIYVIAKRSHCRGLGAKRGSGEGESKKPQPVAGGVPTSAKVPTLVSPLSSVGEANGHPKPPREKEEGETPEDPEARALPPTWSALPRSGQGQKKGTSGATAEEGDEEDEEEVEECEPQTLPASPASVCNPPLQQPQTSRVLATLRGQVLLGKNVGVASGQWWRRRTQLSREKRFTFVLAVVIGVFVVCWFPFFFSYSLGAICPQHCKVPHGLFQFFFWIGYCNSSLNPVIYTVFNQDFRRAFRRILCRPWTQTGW
T1 sequence (P22909 whole entry): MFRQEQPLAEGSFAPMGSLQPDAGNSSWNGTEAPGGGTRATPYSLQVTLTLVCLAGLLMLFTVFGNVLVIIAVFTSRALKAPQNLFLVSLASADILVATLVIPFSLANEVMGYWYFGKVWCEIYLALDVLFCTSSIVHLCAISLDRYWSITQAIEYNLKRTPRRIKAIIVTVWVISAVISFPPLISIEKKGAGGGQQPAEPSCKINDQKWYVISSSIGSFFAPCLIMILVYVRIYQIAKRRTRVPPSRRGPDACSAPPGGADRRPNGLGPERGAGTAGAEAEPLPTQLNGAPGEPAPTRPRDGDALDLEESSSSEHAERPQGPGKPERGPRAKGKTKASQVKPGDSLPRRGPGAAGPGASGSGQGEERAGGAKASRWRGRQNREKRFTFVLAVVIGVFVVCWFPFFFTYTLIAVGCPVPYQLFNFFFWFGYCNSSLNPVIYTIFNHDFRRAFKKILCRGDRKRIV

[2] = biological target: T2, Adrenergic receptor alpha-1 (Rattus norvegicus, UniProt P15823+P23944+P43140); assay: Alpha-1 adrenergic receptor antagonist activity against agonist (norepinephrine) in isolated rat vas deferens; type: functional, tissue-based
T2 sequence (P15823 whole entry): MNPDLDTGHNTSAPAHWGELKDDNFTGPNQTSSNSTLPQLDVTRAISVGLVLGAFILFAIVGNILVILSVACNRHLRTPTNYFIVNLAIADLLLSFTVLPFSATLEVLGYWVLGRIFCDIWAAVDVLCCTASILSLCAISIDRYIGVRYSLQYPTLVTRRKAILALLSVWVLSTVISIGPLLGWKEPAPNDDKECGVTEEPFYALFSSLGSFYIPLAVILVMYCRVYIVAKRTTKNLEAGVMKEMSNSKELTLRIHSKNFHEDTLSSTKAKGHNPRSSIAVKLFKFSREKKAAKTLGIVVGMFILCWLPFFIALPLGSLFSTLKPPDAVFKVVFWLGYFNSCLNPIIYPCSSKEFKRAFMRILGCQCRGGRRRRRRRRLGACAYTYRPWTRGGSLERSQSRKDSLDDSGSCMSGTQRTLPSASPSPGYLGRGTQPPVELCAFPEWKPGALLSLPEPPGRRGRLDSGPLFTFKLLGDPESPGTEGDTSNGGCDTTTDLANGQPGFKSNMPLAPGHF
T2 sequence (P23944 whole entry): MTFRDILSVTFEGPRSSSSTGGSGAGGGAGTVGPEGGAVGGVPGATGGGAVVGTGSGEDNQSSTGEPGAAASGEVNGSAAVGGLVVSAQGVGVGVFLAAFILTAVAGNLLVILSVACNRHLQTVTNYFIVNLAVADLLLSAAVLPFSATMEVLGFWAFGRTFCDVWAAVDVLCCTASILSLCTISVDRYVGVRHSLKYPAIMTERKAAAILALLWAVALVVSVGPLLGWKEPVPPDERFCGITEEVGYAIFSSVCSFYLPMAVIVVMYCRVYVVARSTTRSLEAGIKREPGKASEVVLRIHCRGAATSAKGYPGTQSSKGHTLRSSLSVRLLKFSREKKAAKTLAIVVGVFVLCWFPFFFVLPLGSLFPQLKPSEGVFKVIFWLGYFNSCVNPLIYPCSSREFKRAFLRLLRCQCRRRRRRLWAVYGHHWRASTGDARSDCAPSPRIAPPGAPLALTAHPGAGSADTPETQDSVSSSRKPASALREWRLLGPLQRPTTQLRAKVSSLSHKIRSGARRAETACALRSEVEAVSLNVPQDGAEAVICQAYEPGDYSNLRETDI
T2 sequence (P43140 whole entry): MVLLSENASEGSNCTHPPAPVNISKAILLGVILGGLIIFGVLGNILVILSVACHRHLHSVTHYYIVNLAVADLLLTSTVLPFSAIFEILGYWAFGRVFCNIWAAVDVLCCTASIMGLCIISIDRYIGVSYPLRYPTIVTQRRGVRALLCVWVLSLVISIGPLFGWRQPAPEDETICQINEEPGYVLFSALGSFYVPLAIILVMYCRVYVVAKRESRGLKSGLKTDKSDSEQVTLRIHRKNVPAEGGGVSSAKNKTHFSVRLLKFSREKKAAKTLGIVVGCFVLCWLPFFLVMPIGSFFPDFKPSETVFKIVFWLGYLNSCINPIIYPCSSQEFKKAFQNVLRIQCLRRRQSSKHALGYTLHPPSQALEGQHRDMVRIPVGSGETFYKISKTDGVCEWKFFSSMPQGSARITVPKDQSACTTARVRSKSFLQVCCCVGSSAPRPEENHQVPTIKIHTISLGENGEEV

pA2 [1] | pA2 [2] | Compound
6.29 | 8.83 | COc1cccc(OC)c1OCCNCC1COc2ccccc2O1.Cl (centres undefined) [2- (2,6-DIMETHOXYPHENOXYETHYL)AMINOMETHYL-1,4-BENZODIOXANE HYDROCHLORIDE (WB 4101)]
6.26 | 9.26 | COc1cccc(OC)c1OCCNCC1CSc2ccccc2O1.Cl (centres undefined) [BENOXATHIAN HYDROCHLORIDE]
